The values that follow come from patent US20190038711A1, “Medicament For Treating Pulmonary Tuberculosis” (Shandong Zhonghai Pharmaceutical CO. LTD, priority 2016, published 2019).

This assay relates to airway hyperresponsiveness. The assay is described as follows: Experiment on airway hyperresponsiveness (late-phase airway response, APTI). The assay is classed as in vivo. The settings on record: sensitized mice, acetylcholine 50 μg/kg i.v.; medicament 1 g three times a day intragastric for 17 days; dexamethasone 0.5 ml/kg i.p. daily. Here is the method:
According to the Above Embodiments 13-18, an Experiment on Airway Hyperresponsiveness was Conducted, with an Experimental Method and Effects being Shown Below:
(1) mice for the experiment: the male mice for this experiment were 6 weeks old;
(2) dose: the dose for each mouse was 3 g/day, 3 times a day;
(3) antigen sensitization, allergy attack and treatment: 200 μg of conalbumin (CA) and 2 mg of dinitrobenzene (DNP)-bound albumin were dissolved in 0.3 ml of buffer solution PBS and then […] injected into mice for sensitization twice at an interval of one week. The mice were anesthetized 7 days later after the second sensitization, and were intratracheally provided with 0.05 ml of buffer solution PBS containing 100 μg of conalbumin (CA) to induce an allergy attack. On the 20th day and the 30th day, a further allergy attack was induced by the same method at twice dose. The mice having an allergy attack were divided into 9 groups 24 hours later after the first allergy attack. […]
(4) measurement of late-phase airway response: on the third day after the last allergy attack, the mice of the above 8 groups were intravenously injected with acetylcholine, and then the airway pressure changes of these mice and those of group 9 were all measured to reflect airway responses. […]

`C[C@@H]1C[C@H]2[C@@H]3CCC4=CC(=O)C=C[C@]4(C)[C@@]3(F)[C@@H](O)C[C@]2(C)[C@@]1(O)C(=O)CO` [dexamethasone]: the “APTI (airway pressure-time index)” value is 565 ± 31 centimeter water column per second.
